Source: ChEMBL document CHEMBL1201862, “PubChem BioAssay data set” (2004)
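All cell lines were grown in 96-well plates and treated with compound for 48 hours. GI50 marks 50% less growth.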 Activity calls are given as the source filed them. Rule as the data show it: active = GI50 up to about 1.1 µM and inactive = higher. Non-standard residues stand in square brackets, D forms with d. Residues, ends and D or L forms follow the SMILES beside them. ξ: configuration not given here. *: point of attachment. ξNMeF = CNC(Cc1ccccc1)C(=O)O; NMeV = CN[C@H](C(=O)O)C(C)C; Boc = CC(C)(C)OC(=O)*; OBn = c1ccc(CO*)cc1

What was measured:
Experiment in all cases: NCI tumour cell line growth inhibition, 48 h
HCT-15 = test system: HCT-15
MOLT-4 = test system: MOLT-4
TK-10 = test system: TK-10
UO-31 = test system: UO-31
Malme-3M = test system: Malme-3M
CAKI-1 = test system: CAKI-1
SW-620 = test system: SW-620
SNB-19 = test system: SNB-19
HCT-116 = test system: HCT-116
CCRF-CEM = test system: CCRF-CEM
A498 = test system: A498
SF-295 = test system: SF-295
LOX IMVI = test system: LOX IMVI
HCC 2998 = test system: HCC 2998
SK-OV-3 = test system: SK-OV-3
UACC-62 = test system: UACC-62
OVCAR-3 = test system: OVCAR-3
NCI-H522 = test system: NCI-H522

Measured: GI50

COc1nc(NC2OCC(OC(C)=O)C(OC(C)=O)C2OC(C)=O)c(/N=C(\C)C(C)=O)c(=O)n1C (stereo not given)
> 100 µM: HCT-15
inactive: MOLT-4 > 100 µM | TK-10 > 100 µM | UO-31 > 100 µM | Malme-3M > 100 µM | CAKI-1 > 100 µM | SW-620 > 100 µM | SNB-19 > 100 µM | HCT-116 > 100 µM | CCRF-CEM > 100 µM | A498 > 100 µM | SF-295 > 100 µM | LOX IMVI > 100 µM

O=c1cc(/C=C/c2ccccc2)c2ccc(O/C(=C\c3ccccc3)c3nc4ccccc4c(=O)o3)cc2o1
30.3 µM: HCT-15
inactive: HCC 2998 33.3 µM | MOLT-4 17.6 µM | SK-OV-3 39.4 µM | TK-10 51.4 µM | UACC-62 24.7 µM | Malme-3M 31.3 µM | CAKI-1 25.7 µM | SW-620 37.5 µM | SNB-19 26 µM | HCT-116 14.2 µM | CCRF-CEM 16.9 µM | A498 34.1 µM | OVCAR-3 15 µM | SF-295 26.7 µM | LOX IMVI 31.1 µM

CCCCc1c2c(nc3c1CCCC3O)/C(=C/c1ccccc1)CCC2 (stereo not given)
16 µM: HCT-15
inactive: NCI-H522 21.7 µM | HCC 2998 9.84 µM | MOLT-4 11.6 µM | SK-OV-3 38.5 µM | TK-10 26.9 µM | UACC-62 33.8 µM | UO-31 42.9 µM | Malme-3M 20.2 µM | SW-620 26.2 µM | SNB-19 43.1 µM | HCT-116 36.6 µM | CCRF-CEM 15.9 µM | A498 54.1 µM | OVCAR-3 18.7 µM | SF-295 42.3 µM | LOX IMVI 19.7 µM

CC1(C)C2=CCCC(=O)[C@@]2(C)CC[C@@H]1O
inactive: NCI-H522 > 100 µM | HCC 2998 > 100 µM | MOLT-4 > 100 µM | SK-OV-3 > 100 µM | TK-10 > 100 µM | UACC-62 > 100 µM | UO-31 > 100 µM | CAKI-1 > 100 µM | SW-620 > 100 µM | SNB-19 > 100 µM | HCT-116 > 100 µM | CCRF-CEM > 100 µM | OVCAR-3 > 100 µM | SF-295 > 100 µM | LOX IMVI > 100 µM

CC(=O)OCC1OC(n2c(-c3ccc(C)cc3)cc(-c3ccccc3)c(C#N)c2=O)C(OC(C)=O)C(OC(C)=O)C1OC(C)=O (stereo not given)
inactive: NCI-H522 82.6 µM | HCC 2998 > 100 µM | MOLT-4 > 100 µM | SK-OV-3 > 100 µM | TK-10 > 100 µM | UACC-62 > 100 µM | UO-31 > 100 µM | Malme-3M > 100 µM | CAKI-1 > 100 µM | SW-620 > 100 µM | SNB-19 > 100 µM | HCT-116 > 100 µM | CCRF-CEM > 100 µM | OVCAR-3 > 100 µM | LOX IMVI > 100 µM
> 100 µM: HCT-15

O=C1c2ccccc2C(=O)C2C1C1C(=O)c3ccccc3C(=O)C21 (stereo not given)
inactive: NCI-H522 26.2 µM | HCC 2998 51.6 µM | SK-OV-3 > 100 µM | TK-10 > 100 µM | UACC-62 > 100 µM | UO-31 > 100 µM | Malme-3M 55.1 µM | CAKI-1 > 100 µM | SW-620 > 100 µM | SNB-19 > 100 µM | CCRF-CEM > 100 µM | OVCAR-3 40.6 µM | SF-295 > 100 µM | LOX IMVI 33.3 µM
8.69 µM: HCT-15

CN1Nc2ccccc2CC1=O
inactive: HCC 2998 > 100 µM | SK-OV-3 > 100 µM | TK-10 > 100 µM | UACC-62 > 100 µM | UO-31 > 100 µM | Malme-3M > 100 µM | CAKI-1 > 100 µM | SW-620 > 100 µM | SNB-19 > 100 µM | HCT-116 > 100 µM | CCRF-CEM > 100 µM | A498 > 100 µM | OVCAR-3 > 100 µM | SF-295 > 100 µM | LOX IMVI > 100 µM
> 100 µM: HCT-15

Cc1cc2c(c(C(N)=O)c1C)-c1cccc(F)c1C2=O
inactive: NCI-H522 41.2 µM | HCC 2998 > 100 µM | MOLT-4 > 100 µM | SK-OV-3 > 100 µM | TK-10 > 100 µM | UACC-62 79.6 µM | UO-31 40.9 µM | Malme-3M > 100 µM | SW-620 > 100 µM | SNB-19 > 100 µM | HCT-116 80.2 µM | CCRF-CEM > 100 µM | A498 45.5 µM | OVCAR-3 > 100 µM | SF-295 > 100 µM | LOX IMVI > 100 µM
> 100 µM: HCT-15

N#CCCN(CCC#N)c1ccc(/C=C(\NC(=O)c2cc([N+](=O)[O-])ccc2Cl)C(=O)Nc2ccccc2)cc1
inactive: NCI-H522 44.2 µM | MOLT-4 32.2 µM | SK-OV-3 > 100 µM | TK-10 48 µM | UACC-62 4.52 µM | UO-31 > 100 µM | CAKI-1 62.1 µM | SNB-19 > 100 µM | HCT-116 78.7 µM | CCRF-CEM 5.87 µM | OVCAR-3 > 100 µM | SF-295 64.6 µM | LOX IMVI 21.4 µM
4.55 µM: HCT-15

Cc1cc(O)nc(NN2C(Cl)C(=O)C2c2ccc([N+](=O)[O-])cc2)n1 (stereo not given)
7.52 µM: HCT-15
inactive: HCC 2998 15.3 µM | MOLT-4 8.13 µM | TK-10 15.8 µM | UACC-62 3.31 µM | UO-31 13.9 µM | SW-620 20.5 µM | SNB-19 15.3 µM | HCT-116 9.38 µM | CCRF-CEM 2.15 µM | OVCAR-3 6.53 µM | LOX IMVI 5.96 µM

CCN(CC)CCNc1ccc2ncn3c4ccccc4c(=O)c1c23
active: HCT-116 0.916 µM
3.96 µM: HCT-15
inactive: NCI-H522 2.26 µM | MOLT-4 2 µM | SK-OV-3 2.45 µM | TK-10 7.41 µM | UACC-62 3.91 µM | UO-31 2.08 µM | Malme-3M 3.63 µM | CAKI-1 2.06 µM | SW-620 2.52 µM | SNB-19 9.84 µM | CCRF-CEM 4.1 µM | A498 6.7 µM | OVCAR-3 12.8 µM | SF-295 3.58 µM | LOX IMVI 1.64 µM

O=C(N/C(=C\c1ccccc1Cl)c1nc2ccccc2[nH]1)c1ccccc1
inactive: NCI-H522 22.8 µM | HCC 2998 29.4 µM | MOLT-4 20.6 µM | SK-OV-3 31.6 µM | TK-10 76.4 µM | UACC-62 21.4 µM | UO-31 11.2 µM | Malme-3M 23.5 µM | CAKI-1 29.5 µM | SW-620 27.5 µM | SNB-19 29.3 µM | CCRF-CEM 30.4 µM | OVCAR-3 29.7 µM | SF-295 17 µM
25.8 µM: HCT-15

Brc1ccc2c(c1)C1C(CO2)C(c2ccccc2)=NN1c1ccccc1 (stereo not given)
inactive: HCC 2998 > 100 µM | MOLT-4 > 100 µM | SK-OV-3 > 100 µM | TK-10 > 100 µM | UO-31 > 100 µM | Malme-3M > 100 µM | SW-620 > 100 µM | SNB-19 > 100 µM | HCT-116 > 100 µM | CCRF-CEM > 100 µM | A498 > 100 µM | OVCAR-3 > 100 µM | SF-295 > 100 µM | LOX IMVI > 100 µM

Cc1nc2nn(Cc3ccccc3)cc2c(=O)o1
> 100 µM: HCT-15
inactive: HCC 2998 > 100 µM | MOLT-4 > 100 µM | TK-10 > 100 µM | UACC-62 > 100 µM | UO-31 > 100 µM | Malme-3M > 100 µM | SW-620 > 100 µM | SNB-19 > 100 µM | HCT-116 > 100 µM | CCRF-CEM > 100 µM | A498 > 100 µM | OVCAR-3 > 100 µM | SF-295 > 100 µM | LOX IMVI > 100 µM

CC1c2c(Cl)nc3ccccc3c2Oc2c1c(Cl)nc1ccccc21
inactive: NCI-H522 43.8 µM | HCC 2998 > 100 µM | MOLT-4 31.2 µM | SK-OV-3 > 100 µM | TK-10 47.3 µM | UO-31 65 µM | Malme-3M > 100 µM | SW-620 99.5 µM | SNB-19 > 100 µM | HCT-116 74.6 µM | CCRF-CEM > 100 µM | A498 > 100 µM | OVCAR-3 81.8 µM | SF-295 67.3 µM | LOX IMVI > 100 µM

CCCCN1C(=O)NC(Cc2ccccc2)C1=O (stereo not given)
inactive: NCI-H522 > 100 µM | HCC 2998 > 100 µM | TK-10 > 100 µM | UO-31 > 100 µM | Malme-3M > 100 µM | CAKI-1 > 100 µM | SW-620 > 100 µM | SNB-19 > 100 µM | SF-295 > 100 µM | LOX IMVI > 100 µM

COP1(=O)Oc2ccccc2C(=O)C(C(F)(F)F)(C(F)(F)F)O1 (stereo not given)
active: HCC 2998 0.577 µM
> 100 µM: HCT-15
inactive: NCI-H522 > 100 µM | MOLT-4 > 100 µM | SK-OV-3 > 100 µM | TK-10 > 100 µM | UACC-62 > 100 µM | UO-31 > 100 µM | CAKI-1 50.6 µM | SW-620 > 100 µM | SNB-19 > 100 µM | HCT-116 > 100 µM | CCRF-CEM > 100 µM | A498 > 100 µM | SF-295 > 100 µM | LOX IMVI > 100 µM

CC(C)[C@@H](C(=O)N(C)[C@H](C(=O)N1CCC[C@H]1C(=O)OCc1ccccc1)C(C)C)N(C)C(=O)C(Cc1ccccc1)N(C)C(=O)[C@H](NC(=O)OC(C)(C)C)C(C)C (stereo not given in full) (Boc-[dV][ξNMeF][NMeV][NMeV]P-OBn)
inactive: HCC 2998 > 10 µM | MOLT-4 10.7 µM | SK-OV-3 > 31.6 µM | TK-10 > 31.6 µM | UACC-62 > 31.6 µM | UO-31 > 31.6 µM | Malme-3M > 84.9 µM | CAKI-1 > 31.6 µM | SW-620 > 31.6 µM | SNB-19 > 31.6 µM | HCT-116 > 31.6 µM | CCRF-CEM > 31.6 µM | A498 > 31.6 µM | OVCAR-3 > 34.5 µM | SF-295 26.5 µM | LOX IMVI > 31.6 µM
> 31.6 µM: HCT-15
